The values below are quoted from earlier work in patent US20220361462A1, “ANIMAL MODEL FOR NEURODEGENERATIVE DISORDERS” (NEURO-BIO LTD, priority 2019, published 2022).

No end group written: not given here.

This series has as its system cell lines. The conditions noted are these: previously shown by the inventors.

“NBP-14: candidate modulator of the α7-nAChR, the cyclized form of T14, cyclic SEQ ID No:4 (AEFHRWSSYMVHWK; not fully specified; also: cyclised, mode not given here; listed as Homo sapiens)”: the “effect on AD-like phenotype promoted by AChE-derived peptide on cell lines” value is on record as “blocked”.
